In publication PMC11823381, “Identification of novel inhibitors of dengue viral NS5 RNA-dependent RNA polymerase through molecular docking, biological activity evaluation and molecular dynamics simulations” (Journal of Enzyme Inhibition and Medicinal Chemistry, 2025):
Values joined by “and” are separate entries in the source; they are usually repeats but may differ in a detail not shown here. Identical values can stand only once. Like-named read-outs stand apart in the source and are kept apart here.

How the values were obtained:
[1] = Cytotoxicity (CC50) in the cell-based assay; settings: hamster, BHK-21 cells
Protocol: (§1) In this study, the DENV2 NGC strain (provided by Robert B. Tesh, University of Texas Medical Branch) and BHK-21 cells (Baby hamster kidney cells, ATCC CCL10) were used for cell-based antiviral evaluations. Viral stocks were prepared by infecting C6/36 cells (Aedes albopictus clone C6/36; ATCC CRL166), cultured in RPMI 1640 medium (Invitrogen, Burlington, ON, Canada) containing 2% foetal bovine serum (FBS) (Sigma-Aldrich, Shanghai, China) and 0.5% penicillin-streptomycin. The infected cultures were incubated at 28 °C with 5% CO2 for seven days until cytopathic effects (CPE) were detected. Supernatants were collected by centrifuging at 2,000 g for 5 min to remove debris, mixed with 20% FBS, and stored in aliquots at −80 °C. Viral titres were quantified using the Promega Viral ToxGlo assay (Fisher Scientific, Ottawa, ON, Canada) on BHK-21 cells, and the 50% tissue culture infective dose (TCID50) was determined following the manufacturer’s instructions. To test antiviral activity, BHK-21 cells were seeded in 96-well plates at 2,500 cells per well using Dulbecco’s modified Eagle’s medium (DMEM) with 10% FBS and 1% penicillin-streptomycin. After overnight incubation at 37 °C, cells were exposed to 100 TCID50 of DENV for 90 min. Following infection, the medium was replaced with DMEM supplemented with 2.5% FBS and different concentrations of the test compounds. Cultures were maintained at 37 °C with 5% CO2 for 3 days. Fresh Viral Tox reagent was prepared, and 100 μL was added to each well before incubating the plates for at least 10 min. Luminescence readings were taken using a 1450 MicroBeta TriLux scintillation counter (PerkinElmer). Data were analysed by plotting luminescence values against logarithmic compound concentrations, and nonlinear regression was carried out using GraphPad Prism 10.0 software.

[2] = system: DENV2 NGC strain; assay: Cell-based antiviral assay (Viral ToxGlo, CPE) against DENV-NGC; design: species or system dengue virus (DENV2); settings: for IC50: mean ± SD of two individual experiments; for SI (selectivity index): ratio of CC50 to IC50
Protocol: as §1

[3] = Dengue virus, DENV2, BHK-21, 72 h, BHK-21 cells, 100 TCID50 of DENV, 3 days, read-out: DENV-NGC-IC50
[4] = BHK-21 cells, 100 TCID50 of DENV, 3 days, read-out: DENV-NGC-IC50
[5] = Dengue virus, DENV2, BHK-21, 72 h, read-out: DENV-NGC-IC50, BHK-21 cells, 100 TCID50 of DENV, 3 days

Nc1ncnc2c([C@@H]3N[C@H](CO)[C@@H](O)[C@H]3O)c[nH]c12 [BCX4430, Galidesivir, reference compound]
CC50 at 3 days [1]: 100 ± 12.5 µM
IC50 [2, 3]: 41.6 ± 2.95 µM
SI (selectivity index) [2]: 2.40

COc1cccc(S(=O)(=O)NC(=O)c2cc(-c3ccc(C#CCO)s3)c(OC)cc2OC)c1 [Compound 27, reference compound]
CC50 at 3 days [1]: 26.9 ± 3.02 µM
IC50 [2, 3]: 19.7 ± 1.12 µM
SI (selectivity index) [2]: 1.37

CN(Cc1ccccc1)C(=O)c1snc2c(=O)n(Cc3ccccc3)c(=O)[nH]c12 [Compound D1]
CC50 at 3 days [1]: 37.5 ± 2.03 µM
IC50 [2, 3]: 13.1 ± 1.17 µM
SI (selectivity index) [2]: 2.87

CCCC[C@@](CCC(=O)O)(C(=O)OCC)c1csc(Nc2ccc(C)cc2)n1 [Compound D3]
IC50 [2, 3]: > 66.7 µM

O=C(CCSc1nc(-c2ccc3c(c2)OCO3)cc(C(F)(F)F)n1)NCCN1CCOCC1 [Compound D4]
IC50 [2, 3]: > 200 µM

O=C(Cn1c(=O)sc2ccccc21)Nc1nnc(SCc2ccccc2)s1 [Compound D5]
CC50 at 3 days [1]: > 200 µM
IC50 [2, 4]: 28.5 µM and > 66.7 µM

NC(=O)C1CCN(C(=O)CCCSc2nc(-c3ccco3)cc(C(F)(F)F)n2)CC1 [Compound D6]
IC50 [2, 3]: > 200 µM

O=C(Cn1c(=O)sc2ccccc21)Nc1nnc(SCC(=O)N2CCOCC2)s1 [Compound D7]
IC50 [2, 3]: > 200 µM

O=C(Nc1ccc(F)cc1F)N1CCC[C@@H]1c1nc2cc(-c3ccccc3F)ccc2o1 [Compound D8]
CC50 at 3 days [1]: 99.2 ± 1.93 µM
IC50 [2, 3]: 14.8 ± 7.76 µM
SI (selectivity index) [2]: 6.71

CC(=O)Nc1ccc(S(=O)(=O)N[C@]2(C(F)(F)F)NC(=O)N(c3ccc(Cl)cc3)C2=O)cc1 [Compound D9]
IC50 [2, 3]: > 200 µM

Cc1ccc(NC(=O)[C@@H]2[C@H]3C(=O)N(C[C@@H]4CCCO4)[C@H](C(=O)NC4CCCCC4)[C@]34C=C[C@H]2O4)cc1 [Compound D10]
IC50 [2, 3]: > 200 µM

Cc1[nH]c2ccccc2c1C(=O)C(=O)NC[C@@H]1COc2ccccc2O1 [Compound D11]
CC50 at 3 days [1]: 87.3 ± 2.75 µM
IC50 [2, 5]: > 66.7 µM

O=C1C[C@@H](NCCc2c[nH]c3ccccc23)C(=O)N1c1ccc(Oc2ccccc2)cc1 [Compound D12]
CC50 at 3 days [1]: 163 ± 14.1 µM
IC50 [2, 3]: 47.3 ± 11.8 µM
SI (selectivity index) [2]: 3.45

NC(=O)COc1ccc([C@@H]2CC(=O)Nc3nc(SCc4ccc(Cl)cc4)[nH]c(=O)c32)cc1 [Compound D14]
CC50 at 3 days [1]: > 200 µM
IC50 [2, 4]: 31.2 µM and > 200 µM

CCOc1c(Nc2ccc(C#N)cc2)c(=O)c1=O [Compound D15]
IC50 [2, 3]: > 200 µM

O=C(COc1ccccc1)Nc1nnc(SCc2cc(=O)n3cc(Cl)ccc3n2)s1 [Compound D16]
IC50 [2, 3]: > 200 µM

C[C@@H](Sc1nnc2c3ccccc3nc(-c3ccccc3)n12)C(=O)NC[C@H]1CCCO1 [Compound D17]
CC50 at 3 days [1]: 53 ± 10.5 µM
IC50 [2, 3]: 22.2 ± 7.25 µM
SI (selectivity index) [2]: 2.38

O=C(O)CCCNC(=O)Cn1nc2c(cc1=O)CCCCC2 [Compound D18]
IC50 [2, 3]: > 200 µM

O=c1c2ccccc2[nH]c(=S)n1C[C@H]1CC[C@H](C(=O)NC[C@@H]2COc3ccccc3O2)CC1 [Compound D19]
IC50 [2, 3]: > 200 µM

CN(c1ccccc1)c1nc(=O)n(CC(=O)Nc2ccc(Br)cc2)c2ccccc12 [Compound D21]
IC50 [2, 3]: > 200 µM

N#Cc1ccc(C(=O)N2CCC[C@H]2c2nc(CCOCC3CC3)no2)cc1 [Compound D23]
CC50 at 3 days [1]: > 200 µM
IC50 [2, 4]: > 200 µM
IC50 [2, 3]: 123 µM

O=C([C@@H]1C[C@H](Oc2ccccc2)CN1C(=O)CCc1nc2ccccc2s1)N1CCCC1 [Compound D24]
CC50 at 3 days [1]: > 200 µM
IC50 [2, 5]: > 66.7 µM

O=C(O)[C@H](NC(=O)[C@@H]1CC=CC[C@H]1C(=O)c1ccccc1)c1ccccc1 [Compound D26]
IC50 [2, 3]: > 200 µM
